The results in this text go back to ChEMBL document CHEMBL1156904, “Part II: piperazinyl-glutamate-pyridines as potent orally bioavailable P2Y12 antagonists for inhibition of platelet aggregation” (Bioorg Med Chem Lett, 2010).

Bounds are passed on as bounds.

Data set [1] can be described thus: Antiplatelet activity in human platelet rich plasma assessed as inhibition of ADP-induced platelet aggregation. In kind it is functional.
Data set [2] can be described thus: Antiplatelet activity in human platelet rich plasma assessed as inhibition of ADP-induced platelet aggregation relative to AZD-6140. The format is functional.
Data set [3] in a line: Metabolic stability in rat microsomes. The format is ADME, Microsome.
Another data set deals with P2Y purinoceptor 12 (Homo sapiens, UniProt Q9H244). Kind of data set: Inhibition of human P2Y12 receptor expressed in CHO cells.
Sequence of P2Y purinoceptor 12 (Q9H244 whole entry): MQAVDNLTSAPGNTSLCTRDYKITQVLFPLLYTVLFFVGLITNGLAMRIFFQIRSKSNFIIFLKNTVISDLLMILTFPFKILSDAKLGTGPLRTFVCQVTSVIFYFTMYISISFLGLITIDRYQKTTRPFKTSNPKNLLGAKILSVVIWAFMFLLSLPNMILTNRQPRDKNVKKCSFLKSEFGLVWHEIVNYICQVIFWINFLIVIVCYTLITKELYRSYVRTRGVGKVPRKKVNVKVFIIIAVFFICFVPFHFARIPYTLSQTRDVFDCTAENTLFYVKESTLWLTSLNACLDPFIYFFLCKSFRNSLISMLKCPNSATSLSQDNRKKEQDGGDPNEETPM
Data set [4] can be described thus: Metabolic stability in human microsomes. In kind it is ADME, Microsome.

As for `CCCCCOC(=O)N1CCN(C(=O)[C@H](CCC(=O)O)NC(=O)c2cc(N3CCN(CCOCCC)CC3)cc(-c3ccccc3)n2)CC1`, the half-inhibitory concentration (IC50) in data set [1] was found to be 1500 nM. Moreover, the “fold change (FC)” value in data set [2] is on record as 3.1. Besides, the Stability result in data set [3] and in data set [4] was “Stable” in each case. Besides, the inhibition constant Ki on P2Y purinoceptor 12 was determined as 6.3 nM.
Consider `CCCCCOC(=O)N1CCN(C(=O)[C@H](CCC(=O)O)NC(=O)c2cc(N3CCN(CC(N)=O)CC3)cc(-c3ccccc3)n2)CC1`, for which, in data set [1], the IC50 was found to be 510 nM. Moreover, the “fold change (FC)” value in data set [2] came out at 1.8. Also, the Stability entry in data set [3] and in data set [4] was “Stable” throughout. Moreover, the Ki at P2Y purinoceptor 12 is 1.7 nM.
For `CCCCCOC(=O)N1CCN(C(=O)[C@H](CCC(=O)O)NC(=O)c2cc(N3CCNCC3)cc(-c3ccccc3)n2)CC1`, the half-inhibitory concentration (IC50) in data set [1] was 1900 nM. In addition, the “fold change (FC)” value in data set [2] is listed as 2.3. Further, the Stability entry in data set [3] and in data set [4] was “Stable” throughout. At P2Y purinoceptor 12, this compound showed a Ki of 6.5 nM.
Regarding `CCCCCOC(=O)N1CCN(C(=O)[C@H](CCC(=O)O)NC(=O)c2cc(N3CCC(CCN4CCCC4)CC3)cc(-c3ccccc3)n2)CC1`, the IC50 in data set [1] worked out at 750 nM. In data set [2], the “fold change (FC)” value was determined as 0.59. Further, the Stability result in data set [3] and in data set [4] was “Stable” throughout. For the same compound, the inhibition constant Ki at P2Y purinoceptor 12 was determined as 8 nM.
For `CCCCCOC(=O)N1CCN(C(=O)[C@H](CCC(=O)O)NC(=O)c2cc(N3CCN(CCCN(C)C)CC3)cc(-c3ccccc3)n2)CC1`, the 50% inhibitory concentration (IC50) in data set [1] turned out to be 520 nM. In addition, in data set [2], the “fold change (FC)” value is given as 0.72. In addition, the Stability result in data set [3] and in data set [4] was “Stable” each time. The compound also yielded an inhibitory constant (Ki) on P2Y purinoceptor 12 of 8.4 nM.
Consider `CCCCCOC(=O)N1CCN(C(=O)[C@H](CCC(=O)O)NC(=O)c2cc(N3CCC(C(=O)NC)CC3)cc(-c3ccccc3)n2)CC1`, for which the half-maximal inhibitory concentration (IC50) in data set [1] turned out to be 1600 nM. For the same compound, the “fold change (FC)” value in data set [2] worked out at 0.86. The Stability result in data set [3] and in data set [4] was “Stable” throughout. The compound also showed a Ki at P2Y purinoceptor 12 of 7.9 nM.
Consider `CCCCOC(=O)N1CCN(C(=O)[C@H](CCC(=O)O)NC(=O)c2cc(N3CCC(CNC)CC3)cc(-c3ccccc3)n2)CC1`, for which the IC50 in data set [1] worked out at 910 nM. Moreover, in data set [2], the “fold change (FC)” value amounted to 1. Also, the Stability result in data set [3] and in data set [4] was “Stable” each time. Besides, on P2Y purinoceptor 12, the affinity, expressed as Ki, was 4 nM.
With `CCCCCOC(=O)N1CCN(C(=O)[C@H](CCC(=O)O)NC(=O)c2cc(N3CC(C(N)=O)C3)cc(-c3ccccc3)n2)CC1`, the IC50 in data set [1] worked out at 1900 nM. In addition, the Stability entry in data set [3] and in data set [4] was “Stable” each time. Also, on P2Y purinoceptor 12, the Ki was determined as 0.64 nM.
Consider `CCCCCOC(=O)N1CCN(C(=O)[C@H](CCC(=O)O)NC(=O)c2cc(N3CC(OC)C3)cc(-c3ccccc3)n2)CC1`, for which, in data set [1], the IC50 is above 10000 nM. The Stability result in data set [3] and in data set [4] was “Stable” in each case. The same compound registered an inhibitory constant (Ki) at P2Y purinoceptor 12 of 2 nM.
On to `CCCCCOC(=O)N1CCN(C(=O)[C@H](CCC(=O)O)NC(=O)c2cc(N3CCCC(COC)C3)cc(-c3ccccc3)n2)CC1` (some centres undefined), for which the IC50 in data set [1] was 11000 nM. Also, the Stability result in data set [3] and in data set [4] was “Stable” throughout. For the same compound, the affinity on P2Y purinoceptor 12 corresponds to a Ki of 22 nM.
As to `CCCCCOC(=O)N1CCN(C(=O)[C@H](CCC(=O)O)NC(=O)c2cc(N3CC(C(=O)NC)C3)cc(-c3ccccc3)n2)CC1`, the 50% inhibitory concentration (IC50) in data set [1] worked out at 2000 nM. Moreover, the Stability result in data set [3] and in data set [4] was “Stable” in each case. The Ki at P2Y purinoceptor 12 is 1.7 nM.
For `CCCCCOC(=O)N1CCN(C(=O)[C@H](CCC(=O)O)NC(=O)c2cc(N3CC(N(C)C)C3)cc(-c3ccccc3)n2)CC1`, the IC50 in data set [1] came out at 2700 nM. Further, the Stability entry in data set [3] and in data set [4] was “Stable” throughout. Further, the inhibition constant (Ki) on P2Y purinoceptor 12 amounted to 5.5 nM.
For the compound `CCCCCOC(=O)N1CCN(C(=O)[C@H](CCC(=O)O)NC(=O)c2cc(N3CC(N4CCOCC4)C3)cc(-c3ccccc3)n2)CC1`, the IC50 in data set [1] is 1400 nM. In addition, the Stability entry in data set [3] and in data set [4] was “Stable” each time. Further, the Ki at P2Y purinoceptor 12 was 3.3 nM.
